Test results published in PubChem BioAssay AID2060607 (Molecular Pharmacology Branch, DTP, NCI, 2025).
Several values for one entry are separate records, joined by “and”; a condition that tells them apart may be missing. Identical values can stand only once.

System: 876862-298-R-J1-PDC complex spheroids, viability % test/control
Experiment: Anticancer human tumor 876862-298-R-J1-PDC patient-derived endometrial carcinoma cell line growth inhibition [CLK]
Settings: for viability, T/C: stronger effect = lower value; active = viability on the fitted dose curve at most 10% of control; inactive = the rest
How it was run: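 Patient-derived tumor cells grown as complex spheroids with HUVEC endothelial cells and mesenchymal stem cells, treated with drug combinations. Concentrations descend in half-log steps from near clinical Cmax, or from 10 microM if Cmax unknown.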

[1] = curve of first compound, second compound 0.0316 µM
[2] = curve of first compound, second compound 0.1 µM
[3] = curve of first compound, second compound 0.316 µM
[4] = curve of first compound, second compound 1 µM
[5] = curve of first compound, second compound 3.16 µM
[6] = curve of first compound, second compound 10 µM
[7] = second compound 0.0316 µM, first compound 0.0316 µM
[8] = second compound 0.0316 µM, first compound 0.1 µM
[9] = second compound 0.0316 µM, first compound 0.316 µM
[10] = second compound 0.0316 µM, first compound 1 µM
[11] = second compound 0.1 µM, first compound 0.0316 µM
[12] = second compound 0.1 µM, first compound 0.1 µM
[13] = second compound 0.1 µM, first compound 0.316 µM
[14] = second compound 0.1 µM, first compound 1 µM
[15] = second compound 0.316 µM, first compound 0.0316 µM
[16] = second compound 0.316 µM, first compound 0.1 µM
[17] = second compound 0.316 µM, first compound 0.316 µM
[18] = second compound 0.316 µM, first compound 1 µM
[19] = second compound 1 µM, first compound 0.0316 µM
[20] = second compound 1 µM, first compound 0.1 µM
[21] = second compound 1 µM, first compound 0.316 µM
[22] = second compound 1 µM, first compound 1 µM
[23] = second compound 3.16 µM, first compound 0.0316 µM
[24] = second compound 3.16 µM, first compound 0.1 µM
[25] = second compound 3.16 µM, first compound 0.316 µM
[26] = second compound 3.16 µM, first compound 1 µM
[27] = second compound 10 µM, first compound 0.0316 µM
[28] = second compound 10 µM, first compound 0.1 µM
[29] = second compound 10 µM, first compound 0.316 µM
[30] = second compound 10 µM, first compound 1 µM
[31] = second compound 0.0316 µM, first compound 0.00316 µM
[32] = second compound 0.0316 µM, first compound 0.01 µM
[33] = second compound 0.1 µM, first compound 0.00316 µM
[34] = second compound 0.1 µM, first compound 0.01 µM
[35] = second compound 0.316 µM, first compound 0.00316 µM
[36] = second compound 0.316 µM, first compound 0.01 µM
[37] = second compound 1 µM, first compound 0.00316 µM
[38] = second compound 1 µM, first compound 0.01 µM
[39] = second compound 3.16 µM, first compound 0.00316 µM
[40] = second compound 3.16 µM, first compound 0.01 µM
[41] = second compound 10 µM, first compound 0.00316 µM
[42] = second compound 10 µM, first compound 0.01 µM
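Also: spheroids exposed to drugs for 7 days before readout.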
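For viability, T/C in this document: 100% = DMSO vehicle control wells.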

CC1(C)CCC(CN2CCN(c3ccc(C(=O)NS(=O)(=O)c4ccc(NCC5CCOCC5)c([N+](=O)[O-])c4)c(Oc4cnc5[nH]ccc5c4)c3)CC2)=C(c2ccc(Cl)cc2)C1 + CN1CCN(c2cc(C(=O)Nc3cc4cc(-c5cnn(C)c5)ccc4cn3)ccn2)CC1
inactive: viability, T/C [7] 95% | viability, T/C [8] 89.1% | viability, T/C [9] 90.4% | viability, T/C [10] 89.2% | viability, T/C (second compound 0.0316 µM, first compound 3.16 µM) 94.7% | viability, T/C (second compound 0.0316 µM, first compound 10 µM) 11.1% | viability, T/C [11] 52.3% | viability, T/C [12] 47.5% | viability, T/C [13] 45.5% | viability, T/C [14] 46.1% | viability, T/C (second compound 0.1 µM, first compound 3.16 µM) 43.8%
active: viability, T/C (second compound 0.1 µM, first compound 10 µM) 3.97% | viability, T/C [15] 2.64% | viability, T/C [16] 2.13% | viability, T/C [17] 2.43% | viability, T/C [18] 2.21% | viability, T/C (second compound 0.316 µM, first compound 3.16 µM) 1.34% | viability, T/C (second compound 0.316 µM, first compound 10 µM) 0.56% | viability, T/C [19] 0.41% | viability, T/C [20] 1.28% | viability, T/C [21] 0.52% | viability, T/C [22] 0.24% | viability, T/C (second compound 1 µM, first compound 3.16 µM) 0.22% | viability, T/C (second compound 1 µM, first compound 10 µM) 0.53% | viability, T/C [23] 0.68% | viability, T/C [24] 0.51% | viability, T/C [25] 0.52% | viability, T/C [26] 0.34% | viability, T/C (second compound 3.16 µM, first compound 3.16 µM) 0.16% | viability, T/C (second compound 3.16 µM, first compound 10 µM) 0.09% | viability, T/C [27] 0.38% | viability, T/C [28] 0.67% | viability, T/C [29] 0.34% | viability, T/C [30] 0.45% | viability, T/C (second compound 10 µM, first compound 3.16 µM) 0.19% | viability, T/C (second compound 10 µM, first compound 10 µM) 1.19%
5740 nM: IC50 [1]
< 31.6 nM: IC50 [2] | IC50 [3] | IC50 [4] | IC50 [5] | IC50 [6]

O=C(c1cc(Cc2n[nH]c(=O)c3ccccc23)ccc1F)N1CCN(C(=O)C2CC2)CC1
inactive: viability, T/C (compound 0.0316 µM) 105% and 91.5% | viability, T/C (compound 0.1 µM) 107% and 99% | viability, T/C (compound 0.316 µM) 109% and 99.4% | viability, T/C (compound 1 µM) 109% and 104% | viability, T/C (compound 3.16 µM) 108% and 106% | viability, T/C (compound 10 µM) 90.4% and 89.1%
> 10000 nM: IC50 (curve of compound)

CCN1CCN(Cc2ccc(Nc3ncc(F)c(-c4cc(F)c5nc(C)n(C(C)C)c5c4)n3)nc2)CC1 + CN1CCN(c2cc(C(=O)Nc3cc4cc(-c5cnn(C)c5)ccc4cn3)ccn2)CC1
< 3.16 nM: IC50 [2] | IC50 [3] | IC50 [4] | IC50 [5] | IC50 [6]
active: viability, T/C [35] 5.03% | viability, T/C [36] 5.13% | viability, T/C [15] 6.69% | viability, T/C [16] 7.27% | viability, T/C [17] 9.15% | viability, T/C [18] 9.4% | viability, T/C [37] 0.94% | viability, T/C [38] 1.28% | viability, T/C [19] 1.38% | viability, T/C [20] 1.66% | viability, T/C [21] 2.25% | viability, T/C [22] 3.04% | viability, T/C [39] 1.66% | viability, T/C [40] 0.97% | viability, T/C [23] 1.47% | viability, T/C [24] 1.34% | viability, T/C [25] 2.18% | viability, T/C [26] 3.2% | viability, T/C [41] 0.6% | viability, T/C [42] 0.92% | viability, T/C [27] 1.95% | viability, T/C [28] 2.18% | viability, T/C [29] 1.88% | viability, T/C [30] 2.14%
678 nM: IC50 [1]
inactive: viability, T/C [31] 90.2% | viability, T/C [32] 81.3% | viability, T/C [7] 73.3% | viability, T/C [8] 74.8% | viability, T/C [9] 52.3% | viability, T/C [10] 47.5% | viability, T/C [33] 47% | viability, T/C [34] 45% | viability, T/C [11] 44.1% | viability, T/C [12] 47.3% | viability, T/C [13] 40.9% | viability, T/C [14] 43.3%

COc1c(OCCCN2CCOCC2)ccc2c3n(c(=NC(=O)c4cnc(N)nc4)nc12)CCN3 + CN1CCN(c2cc(C(=O)Nc3cc4cc(-c5cnn(C)c5)ccc4cn3)ccn2)CC1
active: viability, T/C [35] 4.86% | viability, T/C [36] 2.92% | viability, T/C [15] 3.87% | viability, T/C [16] 3.03% | viability, T/C [17] 3.72% | viability, T/C [18] 2.59% | viability, T/C [37] 0.47% | viability, T/C [38] 1.56% | viability, T/C [19] 0.48% | viability, T/C [20] 0.16% | viability, T/C [21] 1.64% | viability, T/C [22] 1.15% | viability, T/C [39] 1.02% | viability, T/C [40] 1.06% | viability, T/C [23] 1.3% | viability, T/C [24] 1.09% | viability, T/C [25] 1.55% | viability, T/C [26] 0.99% | viability, T/C [41] 0.74% | viability, T/C [42] 1.11% | viability, T/C [27] 0.45% | viability, T/C [28] 1.75% | viability, T/C [29] 2.12% | viability, T/C [30] 1.84%
inactive: viability, T/C [31] 90.4% | viability, T/C [32] 74.4% | viability, T/C [7] 65.2% | viability, T/C [8] 26.8% | viability, T/C [9] 16.7% | viability, T/C [10] 17.8% | viability, T/C [33] 47.1% | viability, T/C [34] 40% | viability, T/C [11] 28.3% | viability, T/C [12] 14.6% | viability, T/C [13] 11.1% | viability, T/C [14] 13.2%
< 3.16 nM: IC50 [2] | IC50 [3] | IC50 [4] | IC50 [5] | IC50 [6]
48.3 nM: IC50 [1]
